Assay results reported in US20100047841A1, “SYNTHESIS OF DESACETOXYTUBULYSIN H AND ANALOGS THEREOF” (University of Pittsburgh-of the Commonwealth System of …, priority 2007, published 2010).
Structures can show the parent of a compound that is named as a salt. Where two headings read alike, the source gives them in different places.

Tests used:
[1] = tested on: T98G human glioblastoma cell line; assay: Antiproliferative assay (MTS), GI50 in T98G cells; type: cell-based; details: for GI50: Homo sapiens, T98G
From the text: General methods are known for determining the effect of compounds on proliferation of cells. See, e.g., Zhu et al., J. Med. Chem., 2006, 49, 2063-2076. Cells can be selected by one of skill in the art and can be maintained as exponentially growing cultures in a suitable medium (e.g., RPMI 1640 medium) with adjuvents, including FBS, penicillin, and glutamine, provided at levels known to those skilled in this field. For human cancer cells, e.g., human glioblastoma cell line T98G, the cells can be trypsinized and washed prior to formation of a cell suspension in appropriate buffer and plating of the cell suspension. Typical microtiter plate amounts can be 500-2000 cells/well. The cells can be allowed to attach and grow for a defined time period (e.g., 36 hours, 72 hours, 96 hours, or other defined period) before treatment with either vehicle (e.g., dimethylsulfoxide) or test agent (e.g., compound of the invention) followed by an additional defined time period (e.g., 36 hrs, 72 hrs, 96 hrs, and the like). At the end of the additional defined time period, viability of the cells can be determined by any of a variety of methods known in the art, including assays employing MTS (3-(4,5-dimethylthiazol-2-yl)-5-(3-carboxymethoxyphenyl)-2-(4-sulfophenyl)-2H-tetrazolium), as described by -Cory et al., Cancer Commun., 1991, 3, 207-212. […] Replicates are typically assayed to allow determination of appropriate statistical properties as known in the art.
Compounds of the invention with structures of Formulae Xa, XVb, and XVa were assayed for inhibition of growth of the T98G human glioblastoma cell line (Table II).
Human glioblastoma T98G cells (American Type Culture Collection, Manassas, Va.) were maintained as exponentially growing cultures in an RPMI 1640 medium with 10% FBS, 1% penicillin and 1% glutamine. The cells were seeded into 96-well plates and allowed to attach and grow for 48 hours. One plate of cells was used for a time zero cell number determination (N=16), and cells in other plates were treated for 72 hours or 96 hours with either DMSO (1% v/v; N=8 for each plate) or a range of concentrations, in quadruplicate, of test agents. Cell number was determined spectrophotometrically at 490 nm minus absorbance at 630 nm after exposure to 3-(4,5-dimethylthiazol-2-yl)-5-(3-carboxymethoxyphenyl)-2-(4-sulfophenyl)-2H-tetrazolium (MTS) and N-methylphenazine methylsulfate. The fifty percent growth inhibitory concentrations (GI50) of test agents were calculated from the spectrophotometrically determined growth of the control cells over the 72- or 96-hour period.

bovine brain tubulin = assay: Inhibition of GTP-induced tubulin assembly (turbidimetry at 350 nm); type: biochemical; details: after 20 min at 30° C., 10 μM bovine brain tubulin, 0.8 M monosodium glutamate
Method: Bovine brain tubulin was isolated to electrophoretic homogeneity from fresh brains via methodology described by Hamel and Lin, Biochemistry 23: 4173-84 (1984). Tubulin (final concentration 10 μM; 1 mg/mL) was preincubated with test agents dissolved in DMSO (4% v/v final concentration) and monosodium glutamate (0.8 M final concentration, pH 6.6) for 15 minutes at 30° C. The reaction mixture was cooled to 0° C., and GTP (0.4 mM final concentration) was added. Reaction mixtures were transferred to cuvettes held at 2.5° C. in a Beckmann DU 7400 multichannel, temperature-controlled (Peltier unit) spectrophotometer, reading absorbance (turbidity) at 350 nm in each cuvette every 15 seconds. Baselines were established and temperature was quickly raised to 30° C. (in approximately 1 minute). After 20 minutes, the temperature was returned to 2.5° C. The turbidity value after 20 minutes at 30° C. for GTP alone was assigned as 100% assembly, and for DMSO alone as 0% assembly. The IC50 was calculated by linear regression of the percent assembly values at the same time point obtained with 0.625, 1.25, 2.5, 5, 10 and 20 μM test agent. In experiments to test for disassembly of preformed tubulin polymer, the test agent was added after 7 minutes of GTP-induced assembly.

[2] = tested on: bovine brain tubulin (peptide/depsipeptide site); assay: Inhibition of [3H]dolastatin 10 binding to tubulin (centrifugal gel filtration); details: 10 μM radiotracer, 10 μM tubulin; for % Inhibition of [3H]dolastatin 10 binding by 5 μM test agent: 30 min room temperature; for IC50: test agent 0.5-100 μM, Hill fit
Method: The new compounds were tested for their abilities to bind at the vinca domain and at the related peptide/depsipeptide site on tubulin using a modification of a centrifugal gel filtration method described by Bai et al., Mol. Pharmacol. 7: 965-76 (1995). In the initial screens, each 0.32 mL reaction mixture contained 5 μM test agent and 10 μM [^3H]vinblastine (specific activity 8.50 Ci/mmol; GE Healthcare Bio-Sciences, Picataway, N.J.) or 10 μM [^3H]dolastatin 10 (specific activity 1.96 Ci/mmol; obtained from the Drug Synthesis and Chemistry Branch of the National Cancer Institute) predissolved in DMSO (final concentration 1% v/v) and 10 μM bovine brain tubulin, all in 0.1 M 2-(4-morpholino)ethanesulfonic acid (Mes), pH 6.9, containing 0.5 mM MgCl2. The mixture was incubated for 30 min at room temperature. Two 0.15 mL aliquots of the reaction mixture were applied to duplicate 2 mL beds of pre-swollen (in Mes, pH 6.9, containing 0.5 mM MgCl2) Sephadex G-50 (superfine) contained in Handee columns (Pierce Biotechnology, Rockford, Ill.). The columns were centrifuged at 800×g for 4 minutes and the protein concentration in the effluent was determined, using the bicinchoninic acid assay. The amount of radiolabeled ligand bound to tubulin was determined using scintillation spectrometry. Each value represents the mean ±SD of four determinations. […] Inhibition was calculated as the percent difference relative to that of the control incubation with DMSO (i.e., without test agent—assigned as 0% inhibition). […] GraphPad Prism was used to fit the resulting data to the Hill equation to determine the IC50 values.

[3] = 72 h, read-out: GI50 at (72 h) in T98 glioblastoma cells
[4] = 72 h, read-out: GI50 in T98G cell, 72 h
[5] = 96 h, read-out: GI50 at 96 h in T98 glioblastoma cells
[6] = 96 h, read-out: GI50 in T98G cell, 96 h

CCC(C)[C@H](NC(=O)[C@H]1CCCCN1C)C(=O)N(C)[C@H](C[C@@H](OC(C)=O)c1nc(C(=O)N[C@@H](Cc2ccccc2)C[C@H](C)C(=O)O)cs1)C(C)C (stereo partly drawn) [WZY-III-63C, N^14-Desacetoxytubulysin H trifluoroacetic acid salt]
loss in antiproliferative GI50 compared to dolastatin 10 and tubulysins A or D [1]: 1-2 orders of magnitude | GI50 ([1]; 72 h): 430 to 4400 nM | GI50 [1, 3]: 4.4 nM | GI50 [1, 4]: 4.4 ± 11 nM | GI50 ([1]; 96 h): 350 to 16000 nM | GI50 [1, 5]: 1.6 ± 0.8 nM | GI50 [1, 6]: 1.6 ± 0.8 nM | IC50 (bovine brain tubulin): 2300 nM | % Inhibition of [3H]dolastatin 10 binding by 5 μM test agent [2]: 31 ± 3% | IC50 [2]: 10000 ± 1000 nM

CCC(C)[C@H](NC(=O)CN(C)C)C(=O)N(C)[C@H](C[C@H](OC(C)=O)c1nc(C(=O)N[C@@H](Cc2ccccc2)C[C@H](C)C(=O)O)cs1)C(C)C (stereo partly drawn) [WZY-III-64A, (2S,4R)-4-(2-((6S,9R,11S)-6-sec-Butyl-9-isopropyl-2,8-dimethyl-4,7,13-trioxo-12-oxa-2,5,8-triazatetradecan-11-yl)thiazole-4-carboxamido)-2-methyl-5-phenylpentanoic acid]
GI50 ([1]; 72 h): 430 to 4400 nM | GI50 [1, 3]: 590 nM | GI50 [1, 4]: 590 ± 1000 nM | GI50 ([1]; 96 h): 350 to 16000 nM | GI50 [1, 5]: 400 ± 30 nM | GI50 [1, 6]: 400 ± 30 nM | IC50 (bovine brain tubulin): > 5000 nM | % Inhibition of [3H]dolastatin 10 binding by 5 μM test agent [2]: −11 ± 10%

CCC(C)[C@H](NC(=O)CN(C)C)C(=O)N(C)[C@H](C[C@@H](OC(C)=O)c1nc(C(=O)N[C@@H](Cc2ccccc2)C[C@H](C)C(=O)O)cs1)C(C)C (stereo partly drawn) [WZY-III-69A, (2S,4R)-4-(2-((6S,9R,11R)-6-sec-Butyl-9-iso-propyl-2,8-dimethyl-4,7,13-trioxo-12-oxa-2,5,8-triazatetradecan-11-yl)thiazole-4-carboxamido)-2-methyl-5-phenylpentanoic acid]
GI50 ([1]; 72 h): 430 to 4400 nM | GI50 [1, 3]: 430 nM | GI50 [1, 4]: 430 ± 130 nM | GI50 ([1]; 96 h): 350 to 16000 nM | GI50 [1, 5]: 350 ± 40 nM | GI50 [1, 6]: 350 ± 40 nM | IC50 (bovine brain tubulin): 3100 nM | % Inhibition of [3H]dolastatin 10 binding by 5 μM test agent [2]: 4 ± 3% | IC50 [2]: 64000 ± 9000 nM
